Laboratory results from US9040534B2, “[1,2,4]triazolo[4,3-a]pyrazines as P2X7 modulators” (Janssen Pharmaceutica NV, priority 2013, dated 2015).

Key:
P2X7 [1] = molecular target: T1, P2X7 (Homo sapiens (Human), UniProt Q99572); assay: P2X7 antagonism in human PBMCs (LPS + Bz-ATP induced IL-1β release, ELISA); type: cell-based; settings: 0.5 mM Bz-ATP; for remaining activity at 10 µM: P2X7, 10 μM compound, human PBMC, read-out: PBMC 10 μM (% control); for PBMC 1 μM (% control): 1 μM compound
Procedure: Human blood was collected using a blood donor program. PBMCs were isolated from blood using a Ficoll density gradient technique. Briefly, blood was laid on Ficoll solution and centrifuged at RT for 20 minutes at 2000 rpm. The buffy layer (between red blood cells and plasma) was carefully collected by aspiration, washed with PBS and centrifuged again at 1500 rpm for 15 minutes. The resulting cell pellet was washed and plated on 96 well-plates for experiments. For the Mouse/Human Whole Blood experiments, 150 μl of either mouse or human blood was platted on 96 well-plates. Lipopolysaccharide (LPS) (30 ng/ml) was added to each well and incubated for 1 hour. Test compounds were then added and incubated for 30 minutes. The P2X7 agonist, 2′(3′)-O-(4-benzoylbenzoyl) adenosine 5′-triphosphate (Bz-ATP) was then added at a final concentration of 0.5 mM (PBMC) or 1 mM (blood). Cells were incubated for an additional 1.5 hours. At that point, supernatant was collected and stored for IL-1β assay using manufacturer's protocol for enzyme-linked immunosorbent assay (ELISA). Data was expressed as percent control, where control is defined as the difference in IL-1β release in LPS+Bz-ATP samples and LPS only samples. Data was plotted as response (% control) versus concentration to generate IC50 values. […] In Table 2, when the data cell has been left blank, it is intended to mean that the compound was not tested in that assay.

rat P2X7 [2] = molecular target: T2, rat P2X7 (Rattus norvegicus (Rat), UniProt Q64663); assay: Ca2+ flux (FLIPR) in 1321N1 cells expressing recombinant rat P2X7 channel; type: cell-based; settings: 250 μM BzATP
T2 sequence (Q64663 whole entry): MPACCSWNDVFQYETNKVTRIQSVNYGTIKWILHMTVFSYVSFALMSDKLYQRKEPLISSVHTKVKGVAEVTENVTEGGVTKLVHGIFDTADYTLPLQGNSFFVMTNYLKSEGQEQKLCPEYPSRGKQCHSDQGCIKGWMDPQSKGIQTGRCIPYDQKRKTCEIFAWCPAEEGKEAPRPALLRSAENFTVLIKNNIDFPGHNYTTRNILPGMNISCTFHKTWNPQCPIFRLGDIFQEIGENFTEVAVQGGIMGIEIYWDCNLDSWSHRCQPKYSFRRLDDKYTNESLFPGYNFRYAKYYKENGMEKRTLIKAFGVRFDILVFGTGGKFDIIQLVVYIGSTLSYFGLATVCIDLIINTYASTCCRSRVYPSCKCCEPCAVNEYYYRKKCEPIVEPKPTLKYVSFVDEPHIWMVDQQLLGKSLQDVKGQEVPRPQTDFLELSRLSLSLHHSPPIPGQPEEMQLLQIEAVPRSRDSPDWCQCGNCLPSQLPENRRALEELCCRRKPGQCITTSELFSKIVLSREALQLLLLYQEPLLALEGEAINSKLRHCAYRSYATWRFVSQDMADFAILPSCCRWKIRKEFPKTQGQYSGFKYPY
Procedure: (§1) (A) Ca^2+ Flux: 1321N1 cells expressing the recombinant human, rat or mouse P2X7 channel was cultured in HyQ DME/(HyClone/Dulbecco's Modified Eagle Medium) high glucose supplemented with 10% Fetal Bovine Serum (FBS) and appropriate selection marker. Cells were seeded at a density of 25000 cells/well (96-well clear bottom black walled plates) in 100 μl volume/well. On the day of the experiment, cell plates were washed with assay buffer, containing (in mM): 130 NaCl, 2 KCl, 1 CaCl2, 1 MgCl2, 10 HEPES, 5 glucose; pH 7.40 and 300 mOs. After the wash, cells were loaded with the Calcium-4 dye (Molecular Device) and incubated in the dark for 60 minutes. Test compounds were prepared at 250× the test concentration in neat DMSO. Intermediate 96-well compound plates were prepared by transferring 1.2 μL of the compound into 300 μL of assay buffer. A further 3× dilution occurred when transferring 50 μL/well of the compound plate to 100 μL/well in the cell plate. Cells were incubated with test compounds and dye for 30 minutes. […] The fluorescence change was measured 180 seconds after adding the agonist.

rat P2X7 [3] = molecular target: T2, rat P2X7; assay: Radioligand binding, rat P2X7-1321N1 cell membranes, tritiated A-804598 tracer; settings: 1 hour at 4° C.
Procedure: (§2) (B) Radioligand binding: human or rat P2X7-1321N1 cells were collected and frozen @ −80° C. On the day of the experiment, cell membrane preparations were made according to standard published methods. The total assay volume was 100 μl:10 μl compound (10×)+(b) 40 μl tracer (2.5×)+50 μl membrane (2×). The tracer used for the assay was tritiated A-804598. The compound can be prepared as described in the literature. (Donnelly-Roberts, D. Neuropharmacology 2009, 56 (1), 223-229.) Compounds, tracer and membranes were incubated for 1 hour @ 4° C. The assay was terminated by filtration (GF/B filters pre-soaked with 0.3% PEI) and washed with washing buffer (Tris-HCl 50 mM). The IC50 generated in the binding assay was corrected for tracer concentration and affinity of the tracer to derive at the affinity (Ki) of the test compounds.

P2X7 [4] = molecular target: T1, P2X7; assay: Ca2+ flux (FLIPR) in 1321N1 cells expressing recombinant human P2X7 channel; type: cell-based; settings: 250 μM BzATP
Procedure: as §1

P2X7 [5] = molecular target: T1, P2X7; assay: Radioligand binding, human P2X7-1321N1 cell membranes, tritiated A-804598 tracer; settings: 1 hour at 4° C.
Procedure: as §2, with “The total assay volume was 100 μl:10 μl compound (10×)+(b) 40 μl tracer (2.5×)+50 μl membrane (2×). The tracer used for the assay was tritiated A-804598.” left out, “(Donnelly-Roberts, D. Neuropharmacology 2009, 56 (1), 223-229.) Compounds, tracer and membranes were incubated for 1 hour @ 4° C.” left out

T1 sequence (Q99572 whole entry): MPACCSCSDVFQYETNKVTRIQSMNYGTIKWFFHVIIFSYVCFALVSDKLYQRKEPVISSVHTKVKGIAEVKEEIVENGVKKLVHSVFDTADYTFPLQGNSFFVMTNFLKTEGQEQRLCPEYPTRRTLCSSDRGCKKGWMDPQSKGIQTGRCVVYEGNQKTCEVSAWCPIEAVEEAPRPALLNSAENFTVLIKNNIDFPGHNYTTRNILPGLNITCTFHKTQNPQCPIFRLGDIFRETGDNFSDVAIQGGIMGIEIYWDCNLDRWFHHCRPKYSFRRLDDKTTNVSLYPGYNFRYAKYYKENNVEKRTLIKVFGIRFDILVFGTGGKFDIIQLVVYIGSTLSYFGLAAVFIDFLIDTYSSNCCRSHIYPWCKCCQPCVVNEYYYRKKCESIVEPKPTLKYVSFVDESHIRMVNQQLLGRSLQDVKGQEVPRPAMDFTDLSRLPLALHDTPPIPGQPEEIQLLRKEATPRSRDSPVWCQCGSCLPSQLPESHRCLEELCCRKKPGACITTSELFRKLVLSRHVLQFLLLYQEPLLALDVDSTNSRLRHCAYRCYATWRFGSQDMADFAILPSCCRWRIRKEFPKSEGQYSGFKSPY

Row | remaining activity at 10 µM (P2X7 [1]) [%] | PBMC 1 μM (% control) (P2X7 [1]) | IC50 (rat P2X7 [2]) [nM] | Ki (rat P2X7 [3]) [nM] | IC50 (P2X7 [4]) [nM] | Ki (P2X7 [5]) [nM] | SMILES
1 | 14.1 | – | – | – | – | – | O=C1c2nnc(-c3cnccn3)n2C[C@@H](C2CC2)N1Cc1cccc(C(F)(F)F)c1Cl (single isomer, unassigned) [Example 62]
2 | 27.3 | – | – | – | – | – | O=C1c2nnc(-c3cnccn3)n2C[C@H](C2CC2)N1Cc1cccc(C(F)(F)F)c1Cl (single isomer, unassigned) [Example 63]
3 | – | 50.6 | – | – | – | – | O=C1c2nnc(-c3cnccn3)n2CCN1Cc1cccc(Cl)c1Cl [Example 2, 7-(2,3-Dichlorobenzyl)-3-pyrazin-2-yl-6,7-dihydro[1,2,4]triazolo[4,3-a]pyrazin-8(5H)-one]
4 | – | −0.6 | 9310 | 12.6 | 44.2 | 6.3 | O=C1c2nnc(-c3cnccn3)n2CCN1Cc1cccc(C(F)(F)F)c1Cl [Example 3, 7-[2-Chloro-3-(trifluoromethyl)benzyl]-3-pyrazin-2-yl-6,7-dihydro[1,2,4]triazolo[4,3-a]pyrazin-8(5H)-one]
5 | 20.6 | – | – | – | – | – | C[C@@H]1Cn2c(nnc2-c2cnccn2)C(=O)N1Cc1cccc(Cl)c1Cl [Example 12, (6R)-7-(2,3-Dichlorobenzyl)-6-methyl-3-pyrazin-2-yl-6,7-dihydro[1,2,4]triazolo[4,3-a]pyrazin-8(5H)-one]
6 | – | – | 316 | 2 | < 1 | 5 | C[C@H]1Cn2c(nnc2-c2ccccn2)C(=O)N1Cc1cccc(C(F)(F)F)c1Cl [Example 18, (6S)-7-[2-Chloro-3-(trifluoromethyl)benzyl]-6-methyl-3-pyridin-2-yl-6,7-dihydro[1,2,4]triazolo[4,3-a]pyrazin-8(5H)-one]
7 | – | – | 2000 | 5 | 3.2 | 4 | C[C@H]1Cn2c(nnc2-c2ncco2)C(=O)N1Cc1cccc(C(F)(F)F)c1Cl [Example 20, (6S)-7-[2-Chloro-3-(trifluoromethyl)benzyl]-6-methyl-3-(1,3-oxazol-2-yl)-6,7-dihydro[1,2,4]triazolo[4,3-a]pyrazin-8(5H)-one]
8 | – | – | 122 | 5.6 | 1 | 4 | C[C@H]1Cn2c(nnc2-c2cccnc2)C(=O)N1Cc1cccc(C(F)(F)F)c1Cl [Example 29, (6S)-7-[2-Chloro-3-(trifluoromethyl)benzyl]-6-methyl-3-pyridin-3-yl-6,7-dihydro[1,2,4]triazolo[4,3-a]pyrazin-8(5H)-one]
9 | 3.3 | – | – | – | 0.9 | – | C[C@H]1Cn2c(nnc2-c2ccc(F)cn2)C(=O)N1Cc1cccc(C(F)(F)F)c1Cl [Example 30, (6S)-7-[2-Chloro-3-(trifluoromethyl)benzyl]-3-(5-fluoropyridin-2-yl)-6-methyl-6,7-dihydro[1,2,4]triazolo[4,3-a]pyrazin-8(5H)-one]
10 | – | – | 1560 | – | 42.5 | 31.6 | Cc1cccc(C)c1CN1C(=O)c2nnc(-c3cnccn3)n2C[C@@H]1C [Example 87, (6S)-7-(2,6-Dimethylbenzyl)-6-methyl-3-pyrazin-2-yl-6,7-dihydro[1,2,4]triazolo[4,3-a]pyrazin-8(5H)-one]
11 | – | – | 6040 | – | 4 | 5 | C[C@H]1Cn2c(nnc2-c2cnccn2)C(=O)N1Cc1cccc(C(F)(F)F)c1 [Example 88, (6S)-6-Methyl-3-pyrazin-2-yl-7-[3-(trifluoromethyl)benzyl]-6,7-dihydro[1,2,4]triazolo[4,3-a]pyrazin-8(5H)-one]

The remaining lines, values behind:

Row | SMILES | remaining activity at 10 µM (P2X7 [1]) [%] | PBMC 1 μM (% control) (P2X7 [1]) | IC50 (rat P2X7 [2]) [nM] | Ki (rat P2X7 [3]) [nM] | IC50 (P2X7 [4]) [nM] | Ki (P2X7 [5]) [nM]
12 | C[C@H]1Cn2c(nnc2-c2ccn(C)n2)C(=O)N1Cc1cccc(C(F)(F)F)c1Cl [Example 23, (6S)-7-[2-Chloro-3-(trifluoromethyl)benzyl]-6-methyl-3-(1-methyl-1H-pyrazol-3-yl)-6,7-dihydro[1,2,4]triazolo[4,3-a]pyrazin-8(5H)-one] | – | – | 1220 | 3.2 | 2.5 | 3.2
13 | Cc1cc(-c2nnc3n2C[C@H](C)N(Cc2cccc(C(F)(F)F)c2Cl)C3=O)n[nH]1 [Example 26, (6S)-7-[2-Chloro-3-(trifluoromethyl)benzyl]-6-methyl-3-(5-methyl-1H-pyrazol-3-yl)-6,7-dihydro[1,2,4]triazolo[4,3-a]pyrazin-8(5H)-one] | – | – | 375 | 1 | 1.2 | 3.2
14 | C[C@H]1Cn2c(nnc2-c2cncc(F)c2)C(=O)N1Cc1cccc(C(F)(F)F)c1Cl [Example 45, (6S)-7-[2-Chloro-3-(trifluoromethyl)benzyl]-3-(5-fluoropyridin-3-yl)-6-methyl-6,7-dihydro[1,2,4]triazolo[4,3-a]pyrazin-8(5H)-one] | – | – | 12600 | 5 | 100 | 6.3
15 | Cc1ncccc1-c1nnc2n1C[C@H](C)N(Cc1cccc(C(F)(F)F)c1Cl)C2=O [Example 48, (6S)-7-[2-Chloro-3-(trifluoromethyl)benzyl]-6-methyl-3-(2-methylpyridin-3-yl)-6,7-dihydro[1,2,4]triazolo[4,3-a]pyrazin-8(5H)-one] | – | – | 543 | – | 13.2 | 12.6
16 | C[C@H]1Cn2c(nnc2C2CCCN(C(=O)OC(C)(C)C)C2)C(=O)N1Cc1cccc(C(F)(F)F)c1Cl (stereo partly drawn) [Example 59, (6S)-tert-Butyl3-{7-[2-chloro-3-(trifluoromethyl)benzyl]-6-methyl-8-oxo-5,6,7,8-tetrahydro[1,2,4]triazolo[4,3-a]pyrazin-3-yl}piperidine-1-carboxylate] | 10.9 | – | 1140 | – | – | –
17 | C[C@H]1Cn2c(nnc2C2CCCNC2)C(=O)N1Cc1cccc(C(F)(F)F)c1Cl (stereo partly drawn) [Example 60, (6S)-7-[2-Chloro-3-(trifluoromethyl)benzyl]-6-methyl-3-piperidin-3-yl-6,7-dihydro[1,2,4]triazolo[4,3-a]pyrazin-8(5H)-one] | – | – | > 10000 | – | > 10000 | 631
18 | CC[C@H]1Cn2c(nnc2-c2cnccn2)C(=O)N1Cc1cccc(C(F)(F)F)c1Cl [Example 71, (6S)-7-[2-Chloro-3-(trifluoromethyl)benzyl]-6-ethyl-3-pyrazin-2-yl-6,7-dihydro[1,2,4]triazolo[4,3-a]pyrazin-8(5H)-one] | – | – | 10.3 | – | 0.3 | 1.3
19 | CC[C@H]1Cn2c(nnc2-c2cc[nH]n2)C(=O)N1Cc1cccc(C(F)(F)F)c1Cl [Example 74, (6S)-7-[2-Chloro-3-(trifluoromethyl)benzyl]-6-ethyl-3-(1H-pyrazol-3-yl)-6,7-dihydro[1,2,4]triazolo[4,3-a]pyrazin-8(5H)-one] | – | – | 5.1 | – | 1.5 | 10
20 | CC[C@H]1Cn2c(nnc2-c2ccc(F)cn2)C(=O)N1Cc1cccc(C(F)(F)F)c1Cl [Example 76, (6S)-7-[2-Chloro-3-(trifluoromethyl)benzyl]-6-ethyl-3-(5-fluoropyridin-2-yl)-6,7-dihydro[1,2,4]triazolo[4,3-a]pyrazin-8(5H)-one] | – | – | 158 | 1.6 | < 1 | 2.5
